Assay results taken from patent publication US7521478B2, “Total synthesis of myriaporones” (Pharma Mar, S.A.U., priority 2002, dated 2009).
Where two headings read alike, the source gives them in different places.

What was measured:
Assay type in all cases: cell-based
[1] = system: DU-145; experiment: Inhibition of cell growth by colorimetric SRB assay, DU-145; settings: Homo sapiens, DU-145, 48 hours exposure; for CC50: cell killing, read-out: LC50 (the source's name); for IC (total growth inhibition): read-out: TGI
From the text: (§1) The finality of these assays is to interrupt the growth of a “in vitro” tumor cell culture by means a continued exhibition of the cells to the sample to be testing.
(§2) Inhibition of Cell Growth by Colorimetric Assay.
(§3) A colorimetric type of assay, using sulforhodamine B (SRB) reaction has been adapted for a quantitative measurement of cell growth and viability (following the technique described by P. A. Skehan, et al., J. Natl. CancerInst. 1990, 82, 1107-1112).
(§4) This form of assay employs 96 well cell culture microplates of 9 mm diameter (T. Mosmann et al., J. of Immuological Methods 1983, 65, 55-63; G. T. Faircloth et al., J. of Tissue and Culture Methods 1988, 11, 201-205). Most of the cell lines are obtained from American Type Culture Collection (ATCC) derived from different human cancer types.
(§5) Cells are maintained in RPMI 1640 10% FBS, supplemented with 0.1 g/L penicillin and 0.1 g/L streptomycin sulfate and then incubated at 37° C., 5% CO2 and 98% humidity. For the experiments, cells were harvested from subconfluent cultures using trypsin and resuspended in fresh medium before plating.
(§6) Cells are seeded in 96 well microtiter plates, at 5×10^3 cells per well in aliquots of 195 μL medium, and they are allowed to attach to the plate surface by growing in drug free medium for 18 hours. Afterward, samples are added in aliquots of 5 μL in a ranging from 10 to 10^−8 μg/mL, dissolved in DMSO/EtOH/PBS (0.5:0.5:99). After 48 hours exposure, the antitumor effect are measured by the SRB methodology: cells are fixed by adding 50 μL of cold 50% (wt/vol) trichloroacetic acid (TCA) and incubated for 60 minutes at 4° C. Plates are washed with deionizer water and dried. One hundred μl of SRB solution (0.4% wt/vol in 1% acetic acid) is added to each microliter well and incubated for 10 minutes at room temperature. Unbound SRB is removed by washing with 1% acetic acid. Plates are air dried and bound stain is solubilized with Tris buffer. Optical densities are read on a automated spectrophotometric plate reader at a single wavelength of 490 nm.
(§7) The values for mean +/−SD of data from triplicate wells are calculated. Some parameters for cellular responses can be calculated: GI=growth inhibition, TGI=total growth inhibition (cytostatic effect) and LC=cell killing (cytotoxic effect).

[2] = system: LNCaP; experiment: Inhibition of cell growth by colorimetric SRB assay, LN-caP; settings: Homo sapiens, LN-caP, 48 hours exposure; for CC50: cell killing, read-out: LC50 (the source's name); for IC (total growth inhibition): read-out: TGI
From the text: as §1, §2, §3, §4, §5, §6, §7

[3] = system: IGROV; experiment: Inhibition of cell growth by colorimetric SRB assay, IGROV; settings: Homo sapiens, 48 hours exposure; for CC50: cell killing, read-out: LC50 (the source's name); for IC (total growth inhibition): read-out: TGI
From the text: as §1, §2, §3, §4, §5, §6, §7

[4] = system: IGROV-ET; experiment: Inhibition of cell growth by colorimetric SRB assay, IGROV-ET; settings: Homo sapiens, IGROV-ET, 48 hours exposure; for CC50: cell killing, read-out: LC50 (the source's name); for IC (total growth inhibition): read-out: TGI
From the text: as §1, §2, §3, §4, §5, §6, §7

[5] = system: SK-BR-3; experiment: Inhibition of cell growth by colorimetric SRB assay, SK-BR-3; settings: SK-BR-3, 48 hours exposure; for GI50 / CC50: Homo sapiens; for CC50: cell killing, read-out: LC50 (the source's name); for TGI: total growth inhibition
From the text: as §1, §2, §3, §4, §5, §6, §7

[6] = system: SK-MEL-28; experiment: Inhibition of cell growth by colorimetric SRB assay, MEL-28; settings: Homo sapiens, SK-MEL-28, MEL-28, 48 hours exposure; for CC50: cell killing, read-out: LC50 (the source's name); for IC (total growth inhibition): read-out: TGI
From the text: as §1, §2, §3, §4, §5, §6, §7

[7] = system: A-549; experiment: Inhibition of cell growth by colorimetric SRB assay, A-549; settings: Homo sapiens, A549, A-549, 48 hours exposure; for CC50: cell killing, read-out: LC50 (the source's name); for IC (total growth inhibition): read-out: TGI
From the text: as §1, §2, §3, §4, §5, §6, §7

[8] = system: K-562; experiment: Inhibition of cell growth by colorimetric SRB assay, K-562; settings: Homo sapiens, K562, K-562, 48 hours exposure; for CC50: cell killing, read-out: LC50 (the source's name); for IC (total growth inhibition): read-out: TGI
From the text: as §1, §2, §3, §4, §5, §6, §7

[9] = system: PANC-1; experiment: Inhibition of cell growth by colorimetric SRB assay, PANC-1; settings: Homo sapiens, PANC-1, 48 hours exposure; for CC50: cell killing, read-out: LC50 (the source's name); for IC (total growth inhibition): read-out: TGI
From the text: as §1, §2, §3, §4, §5, §6, §7

[10] = system: HT-29; experiment: Inhibition of cell growth by colorimetric SRB assay, HT-29; settings: Homo sapiens, HT-29, 48 hours exposure; for CC50: cell killing, read-out: LC50 (the source's name); for IC (total growth inhibition): read-out: TGI
From the text: as §1, §2, §3, §4, §5, §6, §7

[11] = system: LoVo; experiment: Inhibition of cell growth by colorimetric SRB assay, LOVO; settings: Homo sapiens, LOVO, 48 hours exposure; for LC50: cell killing, read-out: LC50; for IC (total growth inhibition): read-out: TGI
From the text: as §1, §2, §3, §4, §5, §6, §7

[12] = system: LoVo-Dox; experiment: Inhibition of cell growth by colorimetric SRB assay, LOVO-DOX; settings: Homo sapiens, LOVO-DOX, 48 hours exposure; for LC50 (concentration for 50% cell killing): read-out: LC50; for IC (total growth inhibition): read-out: TGI
From the text: as §1, §2, §3, §4, §5, §6, §7

[13] = system: HeLa; experiment: Inhibition of cell growth by colorimetric SRB assay, HELA; settings: Homo sapiens, HELA, 48 hours exposure; for CC50: cell killing, read-out: LC50 (the source's name); for IC (total growth inhibition): read-out: TGI
From the text: as §1, §2, §3, §4, §5, §6, §7

[14] = system: HeLa-APL; experiment: Inhibition of cell growth by colorimetric SRB assay, HELA-APL; settings: Homo sapiens; for CC50: cell killing, read-out: LC50 (the source's name); for IC (total growth inhibition): read-out: TGI
From the text: as §1, §2, §3, §4, §5, §6, §7

[15] = HELA-APL, 48 hours exposure, read-out: GI50

## C/C=C\[C@H](C)[C@H]1OC1(C)[C@@H](O)[C@@H](CO)C(=O)[C@H](CO)[C@H](O)CC(=O)CC (some centres unmarked) [3b + 4b]
[1]
  GI50: 6.52 µM
  CC50: 26.8 µM
  IC (total growth inhibition): 26.8 µM
[2]
  GI50: 9.29 µM
  CC50: 26.8 µM
  IC (total growth inhibition): 26.8 µM
[3]
  GI50: 5.96 µM
  CC50: 26.8 µM
  IC (total growth inhibition): 26.8 µM
[4]
  GI50: 6.55 µM
  CC50: 26.8 µM
  IC (total growth inhibition): 26.8 µM
[5]
  GI50: 5.07 µM
  CC50: 23.3 µM
  TGI: 1.09E−05 Molar
[6]
  GI50: 5.53 µM
  CC50: 26.8 µM
  IC (total growth inhibition): 26.8 µM
[7]
  GI50: 26.8 µM
  CC50: 26.8 µM
  IC (total growth inhibition): 26.8 µM
[8]
  GI50: 14.2 µM
  CC50: 23.3 µM
  IC (total growth inhibition): 18.2 µM
[9]
  GI50: 26.8 µM
  CC50: 26.8 µM
  IC (total growth inhibition): 26.8 µM
[10]
  GI50: 22.1 µM
  CC50: 26.8 µM
  IC (total growth inhibition): 26.8 µM
[11]
  GI50: 4.81 µM
  LC50: 26.8 µM
  IC (total growth inhibition): 12.6 µM
[12]
  GI50: 9.34 µM
  LC50 (concentration for 50% cell killing): 26.8 µM
  IC (total growth inhibition): 26.8 µM
[13]
  GI50: 8.73 µM
  CC50: 26.8 µM
  IC (total growth inhibition): 26.8 µM
[14]; HELA-APL, 48 hours exposure
  CC50: 26.8 µM
  IC (total growth inhibition): 26.8 µM
[14]; [15]
  GI50: 5.18 µM

## C/C=C\[C@H](C)[C@H]1O[C@@]1(C)[C@@H](O)[C@@H](CO)C(=O)[C@@H](CO)[C@@H](O)CC(=O)CC [3c + 4c]
[1]
  GI50: 0.55 µM
  CC50: 26.8 µM
  IC (total growth inhibition): 4.16 µM
[2]
  GI50: 0.703 µM
  CC50: 26.8 µM
  IC (total growth inhibition): 4.56 µM
[3]
  GI50: 0.553 µM
  CC50: 20.9 µM
  IC (total growth inhibition): 3.57 µM
[4]
  GI50: 0.703 µM
  CC50: 26.8 µM
  IC (total growth inhibition): 6.95 µM
[5]
  GI50: 1.16 µM
  CC50: 26.8 µM
  TGI: 6.07E−06 Molar
[6]
  GI50: 0.634 µM
  CC50: 26.8 µM
  IC (total growth inhibition): 7.25 µM
[7]
  GI50: 0.913 µM
  CC50: 26.8 µM
  IC (total growth inhibition): 13.4 µM
[8]
  GI50: 4.59 µM
  CC50: 26.8 µM
  IC (total growth inhibition): 11.9 µM
[9]
  GI50: 1.03 µM
  CC50: 26.8 µM
  IC (total growth inhibition): 13.3 µM
[10]
  GI50: 0.564 µM
  CC50: 26.8 µM
  IC (total growth inhibition): 6.69 µM
[11]
  GI50: 0.714 µM
  LC50: 26.8 µM
  IC (total growth inhibition): 7.01 µM
[12]
  GI50: 0.846 µM
  LC50 (concentration for 50% cell killing): 26.8 µM
  IC (total growth inhibition): 6.18 µM
[13]
  GI50: 0.62 µM
  CC50: 26.8 µM
  IC (total growth inhibition): 4.78 µM
[14]; HELA-APL, 48 hours exposure
  CC50: 26.8 µM
  IC (total growth inhibition): 8.67 µM
[14]; [15]
  GI50: 0.593 µM

## C/C=C\[C@H](C)[C@H]1OC1(C)[C@@H](O[Si](C)(C)C(C)(C)C)[C@@H](CO)C(=O)[C@H](CO)[C@@H](O)CC(=O)CC (some centres unmarked) [20a + 20c]
[1]
  GI50: 10.7 µM
  CC50: ≥ 20.5 µM
  IC (total growth inhibition): 20.5 µM
[2]
  GI50: 8.42 µM
  CC50: ≥ 20.5 µM
  IC (total growth inhibition): 20.5 µM
[3]
  GI50: 14.1 µM
  CC50: ≥ 20.5 µM
  IC (total growth inhibition): 20.5 µM
[4]
  GI50: 13.8 µM
  CC50: ≥ 20.5 µM
  IC (total growth inhibition): 20.5 µM
[5]
  GI50: 11.1 µM
  CC50: ≥ 20.5 µM
  TGI: 2.05E−05 Molar
[6]
  GI50: 16.3 µM
  CC50: ≥ 20.5 µM
  IC (total growth inhibition): 20.5 µM
[7]
  GI50: ≥ 20.5 µM
  CC50: ≥ 20.5 µM
  IC (total growth inhibition): 20.5 µM
[8]
  GI50: 7.75 µM
  CC50: ≥ 20.5 µM
  IC (total growth inhibition): 20.5 µM
[9]
  GI50: 14 µM
  CC50: ≥ 20.5 µM
  IC (total growth inhibition): 20.5 µM
[10]
  GI50: 17.1 µM
  CC50: ≥ 20.5 µM
  IC (total growth inhibition): 20.5 µM
[11]
  GI50: 10.4 µM
  LC50: ≥ 20.5 µM
  IC (total growth inhibition): 20.5 µM
[12]
  GI50: 85.1 µM
  LC50 (concentration for 50% cell killing): ≥ 20.5 µM
  IC (total growth inhibition): 20.5 µM
[13]
  GI50: 13.3 µM
  CC50: ≥ 20.5 µM
  IC (total growth inhibition): 20.5 µM
[14]; 48 h
  GI50: 12.9 µM
[14]; HELA-APL, 48 hours exposure
  CC50: ≥ 20.5 µM
